From patent US3998874A, “Phenylene di-ethers” (Gist-Brocades N.V., priority 1974, dated 1976)
Where a name gives a salt, the structure may show the parent alone.

Key:
cardiac β-receptors = molecular target: T1, cardiac β-receptors (Cavia porcellus, UniProt H0W3H1); experiment: antagonism to cardiac β-receptors on isolated, spontaneously beating right atrium (isoprenaline chronotropism, pA2); conditions: isolated right atrium guinea pig, vs isoprenaline; R = isopropyl for A-E
T1 construct: on the isolated, spontaneously beating, right atrium of the guinea pig; from tissue; host or cells: guinea pig right atrium (isolated, spontaneously beating)

[1] = molecular target: T2, β-adrenergic (guinea pig tracheal chain) (Cavia porcellus, UniProt Q8K4Z4); experiment: β-adrenergic blocking activity on guinea pig tracheal chain (antagonism of isoprenaline relaxation, pA2); conditions: vs isoprenaline, R = isopropyl for A-E
T2 construct: determined on the guinea pig tracheal chain; from tissue; host or cells: guinea pig tracheal chain (isolated)
Procedure: The β-adrenergic blocking activity was determined on the guinea pig tracheal chain prepared as described by H. Timmerman and N. G. Scheffer, J. Pharm. […] Int. Pharmacodyn. […] The pA2-values were calculated according to Van Rossum from the parallel shift to the right of the log dose - response curves.

[2] = tested on: right atrial muscles from guinea pigs; experiment: anti-arrhythmic activity in vitro, ouabain-induced arrhythmia in right atrial muscles; set-up: species or system guinea pig; conditions: Cavia porcellus; minimal drug concentration (M) preventing any arrhythmia, ouabain 0.5 μg/ml, 37° C, pH 7.4; read-out: Antiarrh. act. -log min. dose (converted)
Procedure: The anti-arrhythmic activity in vitro was determined as follows. Right atrial muscles from guinea pigs were dissected and freed from the appendage. They were suspended in 100 ml of a modified Ringer-Locke solution (g/l: […] Spontaneous contractions were recorded on a Schwarzer ECG (Cardioscript III) using an […] Transducer (8101) in a Wheatstone bridge circuit. Tension was so adjusted that contractions reached maximal amplitude while keeping distortion of the baseline minimal. After a 40-min equilibrium period the test compound was added and for 30 minutes contractile force and rate were recorded at 1-min intervals for 10 seconds. Next, ouabain was added in a concentration of 0.5 μg/ml and force and rate were measured at 1-min intervals over a 60-min period. […] This was confirmed at least once. Control experiments without test compounds were carried out daily.

[3] = tested on: aconitine-induced arrhythmias; experiment: in vivo antagonism of aconitine-induced arrhythmias; set-up: species or system male rats; conditions: for % protection: vs control; for Dose of aconitine inducing arrhythmias: aconitine infusion 5 μg/kg/min
Procedure: This test was carried out in male rats under urethane anaesthesia as described by B. Vargaftig and J. L. Coignet, Eur. J. Pharmacol., 6, 49 (1969). It was estimated what dose of aconitine in an i.v. infusion (5 μ g/kg/min, rate 0.2 ml/min) would induce arrhythmias. Three minutes before the infusion physiological saline with or without test compound was injected i.v.

[4] = hygroscopicity (observation in the synthesis example); assay type: physicochemical; conditions: dihydrochloride

T2 sequence (Q8K4Z4 whole entry): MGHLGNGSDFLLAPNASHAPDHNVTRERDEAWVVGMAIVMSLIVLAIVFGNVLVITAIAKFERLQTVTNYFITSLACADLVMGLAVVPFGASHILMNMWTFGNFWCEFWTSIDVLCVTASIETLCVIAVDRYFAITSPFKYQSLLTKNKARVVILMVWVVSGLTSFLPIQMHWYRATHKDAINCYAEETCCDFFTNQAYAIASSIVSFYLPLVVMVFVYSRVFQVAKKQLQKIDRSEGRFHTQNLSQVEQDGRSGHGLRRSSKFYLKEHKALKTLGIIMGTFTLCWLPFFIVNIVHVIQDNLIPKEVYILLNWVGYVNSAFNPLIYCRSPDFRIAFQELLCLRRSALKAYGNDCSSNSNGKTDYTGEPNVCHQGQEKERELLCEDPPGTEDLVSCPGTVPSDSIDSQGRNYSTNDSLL
T1 sequence (H0W3H1 1-470): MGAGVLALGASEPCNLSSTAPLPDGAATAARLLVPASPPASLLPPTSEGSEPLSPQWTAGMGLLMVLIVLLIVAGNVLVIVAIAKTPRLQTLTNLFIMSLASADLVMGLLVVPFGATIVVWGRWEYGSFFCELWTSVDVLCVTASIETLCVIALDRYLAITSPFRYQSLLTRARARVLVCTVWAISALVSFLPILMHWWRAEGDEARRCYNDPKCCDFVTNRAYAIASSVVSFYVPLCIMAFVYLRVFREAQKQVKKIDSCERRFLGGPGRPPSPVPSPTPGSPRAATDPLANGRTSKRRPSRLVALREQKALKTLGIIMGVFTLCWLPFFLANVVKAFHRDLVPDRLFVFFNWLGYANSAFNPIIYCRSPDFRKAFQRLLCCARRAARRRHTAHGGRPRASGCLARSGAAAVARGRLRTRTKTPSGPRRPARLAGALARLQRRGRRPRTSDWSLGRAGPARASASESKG

## Cc1ccc(OCC(O)CNC(C)C)c(OCC(O)CNC(C)C)c1.Cl.Cl (stereo not shown) [D, 1,1'-[(4-methyl-o-phenylene)dioxy]-bis-[3-(isopropylamino)-propan-2-ol] dihydrochloride]
Cardiac β-receptors
  Kb: 603 nM
[1]
  pA2 trachea: 6.66 (±0.09)
[2]
  minimal effective concentration: 5.01e-05 M

## CC(C)(C)NCC(O)COc1ccccc1OCC(O)CNC(C)(C)C (stereo not shown) [F, 1,1'-(o-phenylenedioxy)-bis-[3-(tert.-butylamino)-propan-2-ol]dihydrochloride]
[3]; 4 mg/kg i.v.
  % protection: 41.7%
[3]; 8 mg/kg i.v.
  % protection: 104.2%
[3]; 16 mg/kg i.v.
  % protection: 158.6%
[3]; test compound 4 mg/kg i.v.
  Dose of aconitine inducing arrhythmias: 0.034 mg/kg
[3]; test compound 8 mg/kg i.v.
  Dose of aconitine inducing arrhythmias: 0.049 mg/kg
[3]; test compound 16 mg/kg i.v.
  Dose of aconitine inducing arrhythmias: 0.062 mg/kg

## CC(C)NCC(O)COc1ccccc1OCC(O)CNC(C)C (stereo not shown) [A, 1,1'-(o-phenylenedioxy)-bis-[3-(isoproyl-amino)propan-2-ol] dihydrochloride]
Cardiac β-receptors
  Kb: 324 nM
[1]
  pA2 trachea: 6.73 (±0.05)
[3]; 4 mg/kg i.v.
  % protection: 12.9%
[3]; 8 mg/kg i.v.
  % protection: 35.5%
[3]; 16 mg/kg i.v.
  % protection: 110.8%
[3]; test compound 4 mg/kg i.v.
  Dose of aconitine inducing arrhythmias: 0.0315 mg/kg
[3]; test compound 8 mg/kg i.v.
  Dose of aconitine inducing arrhythmias: 0.0378 mg/kg
[3]; test compound 16 mg/kg i.v.
  Dose of aconitine inducing arrhythmias: 0.0588 mg/kg
[2]
  minimal effective concentration: 0.0002 M

## CC(C)NCC(O)COc1ccccc1 (stereo not shown) [G, 1-(isopropylamino)-3-phenoxy-2-propanol, reference compound]
Cardiac β-receptors
  Kb: 0.977 nM
[1]; read-out: pA2 trachea (converted)
  Kb: 24.5 nM
[2]
  minimal effective concentration: 0.000302 M

## CC(C)NCC(O)COc1cccc(C(C)C)c1OCC(O)CNC(C)C (stereo not shown) [C, 1,1'-[(3-isopropyl-o-phenylene)dioxy]-bis-[3-(isopropylamino)-propan-2-ol]dihydrochloride]
Cardiac β-receptors
  Kb: 25700 nM
[1]
  pA2 trachea: 5.35 (±0.11)
[3]; 0.5 mg/kg i.v.
  % protection: 44.0%
[3]; 1.0 mg/kg i.v.
  % protection: 79.6%
[3]; 2.0 mg/kg i.v.
  % protection: 135.5%
[3]; test compound 0.5 mg/kg i.v.
  Dose of aconitine inducing arrhythmias: 0.0458 mg/kg
[3]; test compound 1.0 mg/kg i.v.
  Dose of aconitine inducing arrhythmias: 0.0571 mg/kg
[3]; test compound 2.0 mg/kg i.v.
  Dose of aconitine inducing arrhythmias: 0.0749 mg/kg
[2]
  minimal effective concentration: 1e-05 M

## Cc1cccc(OCC(O)CNC(C)C)c1OCC(O)CNC(C)C.Cl.Cl (stereo not shown) [B, 1,1'-[(3-methyl-o-phenylene)dioxy]-bis-[3-(isopropylamino)propan-2-ol] dihydrochloride]
Cardiac β-receptors
  Kb: 3310 nM
[1]
  pA2 trachea: 5.80 (±0.08)
[2]
  minimal effective concentration: 2e-05 M

## CC(C)NCC(O)COc1ccc(C(C)C)cc1OCC(O)CNC(C)C.Cl.Cl (stereo not shown) [E, 1,1'-[(4-isopropyl-o-phenylene)dioxy]-bis-[3-(isopropylamino)-propan-2-ol] dihydrochloride]
Cardiac β-receptors
  Kb: 2290 nM
[1]
  pA2 trachea: 6.48 (±0.09)
[4]
  hygroscopicity: very hydroscopic
[2]
  minimal effective concentration: 2e-05 M
